Where a SMILES comes first, the peptide text is derived from it. Where no end group is shown, it is not given here. The star is where a group is joined. Dansyl = CN(C)c1cccc2c(S(=O)(=O)*)cccc12
What was measured:
SPOP MATH WT [1] = target: T1, SPOP MATH WT (Homo sapiens, UniProt O43791); test: Equilibrium binding, FRET (Trp to dansyl), fluorescence titration; settings: read-out: Equilibrium KD; dansylated peptide 0 to 40 µM; constant SPOP MATH WT (2 µM in methods, 1 µM in results); excitation 280 nm, emission 300-400 nm; 298 K; hyperbolic fit
Text: The MATH domain of SPOP exerts its functions by specifically recognizing different substrates and, therefore, acting as an adaptor module between SPOP and its physiological ligands. In an effort to provide a complete characterization of SPOP MATH binding mechanisms, we investigated the recognition of three peptides mimicking a specific region of the substrates Puc (region 96–105), MacroH2A (region 166–179), and PTEN (region 354–368). […] Moreover, the three-dimensional structure of SPOP MATH in complexes with each of the peptides has been previously reported (3HQH, 3HQL, and 4OV1 PDB entries, respectively). Similar to previous work on other protein–protein recognition modules, we employed peptides carrying a covalently attached N-terminal dansyl fluorophore. Binding was then followed by measuring the FRET (Forster resonance energy transfer) between the three tryptophan residues of the SPOP MATH domain (donor) and the dansyl group of the peptides (acceptor).
To address the equilibrium binding affinity of SPOP MATH and its substrates, a fixed concentration of the protein (1 µM) was challenged with increasing peptide concentrations. In all cases, the fluorescence-monitored transition returned a hyperbolic behavior as described in the Section 4, which allowed estimating a dissociation constant of 1.4 ± 0.4 µM, 1.6 ± 0.2 µM, and 5.5 ± 0.5 µM for Puc, MacroH2A, and PTEN, respectively (Figure 2). These values appear partly consistent with what was previously reported by Zhuang et al. by using surface plasmon resonance. […]
Equilibrium binding experiments were performed on a Fluoromax-4 single-photon-counting spectrofluorometer (Jobin-Yvon, Newark, NJ, USA). The SPOP MATH domain was excited at 280 nm and emission spectra were recorded between 300 and 400 nm, at increasing dansylated peptide concentrations. […]

SPOP MATH WT [2] = target: T1, SPOP MATH WT; test: Stopped-flow pseudo-first-order binding kinetics; settings: 298 K; for kon: stopped-flow, 2 µM MATH domain, dansylated peptide 2 to 10 µM (Puc, MacroH2A) or 2 to 40 µM (PTEN), 50 mM sodium-HEPES, pH 7.2 (for ionic strength series), five traces averaged, slope of kobs vs peptide
Method: (§1) To infer the mechanism of recognition of SPOP MATH, we resorted to performing time-resolved kinetic experiments. SPOP MATH was rapidly mixed with increasing concentrations of dansylated peptides (from 2 to 10 µM for Puc and MacroH2A, and from 2 to 40 µM for PTEN) in a stopped-flow apparatus at 298 K. The binding traces obtained by monitoring the time-resolved fluorescence were satisfactorily fitted to a single exponential equation, allowing calculating the observed rate constants kobs at different peptide concentrations. We then plotted the kobs values over the concentration of dansylated peptide and fitted the data to a simple linear function equation: kobs=kon Peptide+koff where kobs is the observed rate constant; kon and koff are the microscopic association and dissociation rate constants, respectively (Figure 2). The slope and y-axis intercept represent the microscopic association and dissociation rate constant, respectively. To minimize the error associated with the indirect measurement of the dissociation rate constant, we carried out displacement experiments to determine the koff values. The displacement experiments were designed by mixing the preformed complex SPOP MATH-dansylated peptides with a high excess of nondansylated peptide, as described in the Section 4. […] On the basis of these observations, it is possible to conclude that, in the case of binding to MacroH2A and PTEN, there is the presence of an additional step, which escapes detection by stopped-flow experiments and is likely to be negligible in the case of Puc. […] We note that such a case closely resembles the presence of a so-called burst phase, which is frequently observed in protein-folding studies.
Binding kinetic experiments were performed on an Applied Photophysics DX-17MV stopped-flow apparatus (Applied Photophysics, Leatherhead, UK). Pseudo-first-order binding experiments were performed by mixing a constant concentration (2 μM) of MATH domain with increasing dansylated peptides concentrations, from 2 to 10 μM of Puc and MacroH2A, and 2 to 40 µM of PTEN. The samples were excited at 280 nm, and the emission fluorescence was recorded by using a bandpass 320 nm cutoff filter. The experiments were performed at 298 K. For ionic strength dependence with Puc and MacroH2A, the buffers used were 50 mM sodium-HEPES, pH 7.2, supplemented with 50 mM, 100 mM, 200 mM, or 500 mM of sodium chloride (NaCl). For the PTEN binding salt dependence experiments, lower concentrations of salt were added for the previous buffer list mentioned (10 mM, 25 mM, and 50 mM of sodium chloride). For each acquisition, five traces were collected, averaged, and satisfactorily fitted to a single exponential equation.

SPOP MATH WT [3] = target: T1, SPOP MATH WT; test: Stopped-flow displacement; assay type: binding; settings: preincubated complex (both 8 µM) mixed with 50 μM nondansylated peptide, 298 K, average of five single traces
Method: as §1
Target sequence in this assay (O43791 1-182): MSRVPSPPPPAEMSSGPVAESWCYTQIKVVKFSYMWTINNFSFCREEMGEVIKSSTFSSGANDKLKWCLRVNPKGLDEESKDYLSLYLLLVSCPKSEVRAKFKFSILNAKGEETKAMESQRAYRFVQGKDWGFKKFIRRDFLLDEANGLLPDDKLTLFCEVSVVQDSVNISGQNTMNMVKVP
Microscopic dissociation rate constants (koff) were directly measured by performing displacement experiments on an Applied Photophysics DX-17MV stopped-flow apparatus (Applied Photophysics). […] The samples were excited at 280 nm and fluorescence emission was collected by using a 330 ± 30 nm bandpass filter. […] The observed rate constants were calculated from the average of five single traces. […]

[4] = target: engineered MATH domain of SPOP (Speckle-type POZ protein), residues 1-182, cysteine residues substituted to serine (UniProt O43791); test: stopped-flow fluorescence binding kinetics + other: stopped-flow fluorescence displacement; KD calculated by combining kon of the pseudo-first-order plots with koff of the displacement experiments; 298 K
[5] = target: engineered MATH domain of SPOP (Speckle-type POZ protein), residues 1-182, cysteine residues substituted to serine (UniProt O43791); test: stopped-flow fluorescence binding kinetics; pseudo-first-order; 2 µM MATH mixed with dansylated peptide, 2 to 10 µM Puc and MacroH2A, 2 to 40 µM PTEN; excitation 280 nm; 298 K; kobs against peptide concentration fitted to a line, kon from the slope
[6] = target: engineered MATH domain of SPOP (Speckle-type POZ protein), residues 1-182, cysteine residues substituted to serine (UniProt O43791); test: stopped-flow fluorescence displacement; preincubated complex of MATH domain and dansylated peptide (both 8 µM) mixed with an excess of nondansylated peptide (50 µM); 298 K; same buffer as the binding experiments; single exponential decay gives koff
[7] = target: engineered MATH domain of SPOP (Speckle-type POZ protein), residues 1-182, cysteine residues substituted to serine (UniProt O43791); test: other fluorescence titration; equilibrium; FRET from the tryptophans of SPOP MATH (excited at 280 nm, emission 300-400 nm) to the dansyl of the peptide; MATH at constant concentration (2 µM in the methods, 1 µM in the results), dansylated peptide 0 to 40 µM; 298 K; hyperbolic fit

Row | Kd [4] | kon [5] | koff [6] | Kd [7] | Molecule | Kd (SPOP MATH WT [1]) | Kd (SPOP MATH WT [2]; read-out: Kinetics KD, WT, from kon (pseudo-first-order) and koff (displacement)) | kon (SPOP MATH WT [2]) | koff (SPOP MATH WT [3])
1 |  |  |  |  | CC(C)[C@H](NC(=O)[C@H](CO)NC(=O)[C@@H](NC(=O)[C@H](CO)NC(=O)[C@H](CO)NC(=O)[C@H](CO)NC(=O)[C@H](C)NC(=O)[C@H](CCC(=O)O)NC(=O)[C@@H]1CCCN1C(=O)[C@H](CC(N)=O)NC(=O)[C@H](CO)NC(=O)[C@@H]1CCCN1S(=O)(=O)c1cccc2c(N(C)C)cccc12)[C@@H](C)O)C(=O)N[C@H](C(=O)N1CCC[C@H]1C(=O)N[C@@H](CC(=O)O)C(=O)O)[C@@H](C)O [PTEN] (HELM PEPTIDE1{[CN(C)c1cccc2c(S(=O)(=O)[*:2])cccc12].P.S.N.P.E.A.S.S.S.T.S.V.T.P.D}$$$$V2.0) | 4000 ± 1000 nM | 20.8 ± 0.4 µM | 5.5 ± 0.5 µM⁻¹ s⁻¹ | 113 ± 1 s⁻¹
2 |  |  |  |  | C[C@H](NC(=O)[C@H](C)NC(=O)[C@H](CCCCN)NS(=O)(=O)c1cccc2c(N(C)C)cccc12)C(=O)N[C@@H](CO)C(=O)N[C@@H](C)C(=O)N[C@@H](CC(=O)O)C(=O)N[C@@H](CO)C(=O)N[C@H](C(=O)N[C@H](C(=O)N[C@@H](CCC(=O)O)C(=O)NCC(=O)N[C@H](C(=O)N1CCC[C@H]1C(=O)N[C@@H](C)C(=O)N[C@@H](CC(=O)O)C(=O)O)[C@@H](C)O)[C@@H](C)O)[C@@H](C)O [MacroH2A] (HELM PEPTIDE1{[CN(C)c1cccc2c(S(=O)(=O)[*:2])cccc12].K.A.A.S.A.D.S.T.T.E.G.T.P.A.D}$$$$V2.0) | 1600 ± 200 nM |  | 3 ± 2 µM⁻¹ s⁻¹ | 21 ± 2 s⁻¹
3 | 7.8 µM | 3e+06 M⁻¹ s⁻¹ | 21 s⁻¹ |  | Dansyl-KAASADSTTEGTPAD [dansylated peptide mimicking MacroH2A (region 166-179)] |  |  |  | 
4 |  | 5.5e+06 M⁻¹ s⁻¹ | 113 s⁻¹ | 5.5 µM | Dansyl-PSNPEASSSTSVTPD [dansylated peptide mimicking PTEN (region 354-368)] |  |  |  | 

From publication PMC10298926, “Biophysical Characterization of the Binding Mechanism between the MATH Domain of SPOP and Its Physiological Partners” (International Journal of Molecular Sciences, 2023)
